Laboratory results as given in patent US20230159510A1, “NOVEL PRMT5 INHIBITORS” (AMGEN INC., priority 2020, published 2023).
Read-outs that look alike come from different tables or passages of the source.

Assays:
HCT116 MTAP null cells = assay: HCT116 proliferation assay, MTAP null cells (CellTiter-Glo, 6 days); type: cell-based; details: read-out: Protif_ HCT116-MTAP null IC50
Procedure, shortened: (§1)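 Readout is CellTiter-Glo luminescence after 6 days of drug exposure at 37 °C. Compounds tested as 8–9 point, 3-fold dilution series starting at 1 or 10 µM, versus DMSO only, on cells in RPMI 1640 with 10% FBS.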

PRMT5/MEP50 = PRMT5/MEP50 (Homo sapiens, UniProt O14744); assay: MTase-Glo methyl transferase assay, Method B (FL-Histone H2A, 1 µM MTA, 1 h pre-incubation); type: biochemical; parameters: purchased Reaction Biology Corp RD-11-292; details: read-out: PRMT5 MTase Glo Ki (nM, Meth. B)
PRMT5/MEP50, sequence (O14744 2-637 limits assumed): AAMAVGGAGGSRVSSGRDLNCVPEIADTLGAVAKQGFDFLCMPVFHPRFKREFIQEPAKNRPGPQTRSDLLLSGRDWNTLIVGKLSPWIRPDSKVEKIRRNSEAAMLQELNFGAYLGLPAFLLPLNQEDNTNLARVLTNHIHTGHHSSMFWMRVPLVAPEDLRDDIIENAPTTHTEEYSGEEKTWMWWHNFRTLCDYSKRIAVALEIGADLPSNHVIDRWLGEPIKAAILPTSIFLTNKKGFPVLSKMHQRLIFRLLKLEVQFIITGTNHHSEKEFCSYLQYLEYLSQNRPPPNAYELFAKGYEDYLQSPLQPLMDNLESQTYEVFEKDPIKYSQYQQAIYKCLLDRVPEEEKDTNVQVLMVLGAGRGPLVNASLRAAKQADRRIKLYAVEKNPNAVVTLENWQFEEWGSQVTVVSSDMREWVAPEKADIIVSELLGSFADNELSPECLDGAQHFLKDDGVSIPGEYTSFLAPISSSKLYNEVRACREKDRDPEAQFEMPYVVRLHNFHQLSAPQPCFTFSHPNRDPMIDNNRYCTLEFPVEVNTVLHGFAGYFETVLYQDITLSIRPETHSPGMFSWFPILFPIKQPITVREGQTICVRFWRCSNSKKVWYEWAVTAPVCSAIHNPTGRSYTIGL
PRMT5/MEP50, sequence (Q9BQA1 2-342 partner limits assumed): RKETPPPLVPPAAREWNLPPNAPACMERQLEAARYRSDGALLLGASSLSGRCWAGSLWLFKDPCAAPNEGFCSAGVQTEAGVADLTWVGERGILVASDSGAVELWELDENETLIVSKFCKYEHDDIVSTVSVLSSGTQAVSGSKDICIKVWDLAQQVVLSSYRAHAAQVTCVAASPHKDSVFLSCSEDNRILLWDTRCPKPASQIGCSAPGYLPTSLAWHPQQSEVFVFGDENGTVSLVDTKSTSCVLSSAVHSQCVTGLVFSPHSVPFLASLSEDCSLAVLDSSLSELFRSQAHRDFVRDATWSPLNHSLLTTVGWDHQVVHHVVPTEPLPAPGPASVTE
Procedure, shortened: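 PRMT5/MEP50 (4 nM) was pre-incubated 1 h with compound, 5 µM SAM and 1 µM MTA, then started with 2.5 µM FL-Histone H2A in Tris pH 8.0 buffer. After 20 h at room temperature, SAH was detected by MTase-Glo luminescence, and IC50/KI were fitted from dose-response curves.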

HCT116 WT cells = assay: HCT116 proliferation assay, WT cells (CellTiter-Glo, 6 days); type: cell-based; details: read-out: Prolif_HCT116-WT IC50
Procedure, shortened: as §1

Compound	IC50 (HCT116 MTAP null cells; HCT116-MTAP null, 144 h) [nM]	Ki (PRMT5/MEP50) [nM]	IC50 (HCT116 WT cells; Homo sapiens, HCT-116, 144 h) [nM]	IC50 (HCT116 MTAP null cells) [nM]	IC50 (HCT116 WT cells) [nM]
Cc1cc2cc(C(=O)N(Cc3ccc(C(F)(F)F)cn3)Cc3c(C)c4ccccc4n3C)ccc2nc1N [Example 578, 2-amino-N-((1,3-dimethyl-1H-indol-2-yl)methyl)-3-methyl-N-((5-(trifluoromethyl)pyridin-2-yl)methyl)quinoline-6-carboxamide]	859	15.4	5090		
Cc1cc2cc(C(=O)N(Cc3ccc4[nH]c(=O)[nH]c4c3)Cc3ccc(C(F)(F)F)cn3)ccc2nc1N [Example 570, 2-amino-3-methyl-N-((2-oxo-2,3-dihydro-1H-benzo[d]imidazol-5-yl)methyl)-N-((5-(trifluoromethyl)pyridin-2-yl)methyl)quinoline-6-carboxamide]	343	2.39	> 10000		
Cc1cc2cc(C(=O)N(Cc3ccc(C(F)(F)F)cn3)Cc3ccc4cc[nH]c4n3)ccc2nc1N [Example 615, N-((1H-pyrrolo [2,3-b]pyridin-6-yl)methyl)-2-amino-3-methyl-N-((5-(trifluoromethyl)pyridin-2-yl)methyl)quinoline-6-carboxamide]	276	1.62	3500		
Cc1cc2cc(C(=O)N(Cc3ccc(C(F)(F)F)cn3)CC3CCOCC3C)ccc2nc1N (stereo not drawn) [Example 596, 2-amino-3-methyl-N-((3-methyltetrahydro-2H-pyran-4-yl)methyl)-N-((5-(trifluoromethyl)pyridin-2-yl)methyl)quinoline-6-carboxamide]	352	17.1	> 10000		
Cc1cc2cc(C(=O)N(Cc3ccc(C(F)(F)F)cn3)C3CC(C)c4ccccc43)ccc2nc1N (stereo not drawn) [Example 595, 2-amino-3-methyl-N-(3-methyl-2,3-dihydro-1H-inden-1-yl)-N-((5-(trifluoromethyl)pyridin-2-yl)methyl)quinoline-6-carboxamide]	990	21.5	8200		
Cc1cc2cc(C(=O)N(Cc3ccc(C(F)(F)F)cn3)C3CCc4sc(Cl)cc43)ccc2nc1N (stereo not drawn) [Example 607, 2-amino-N-(2-chloro-5,6-dihydro-4H-cyclopenta[b]thiophen-4-yl)-3-methyl-N-((5-(trifluoromethyl)pyridin-2-yl)methyl)quinoline-6-carboxamide]	370	7.26	> 3200		
Cc1cc2cc(C(=O)N(Cc3ccc(C(F)(F)F)cn3)C3CC(C)(C)c4ccccc43)ccc2nc1N (stereo not drawn) [Example 594, 2-amino-N-(3,3-dimethyl-2,3-dihydro-1H-inden-1-yl)-3-methyl-N-((5-(trifluoromethyl)pyridin-2-yl)methyl)quinoline-6-carboxamide]	640	26	> 1000		
Cc1cc2cc(C(=O)N(Cc3ccc(C(F)(F)F)cn3)C3CCc4c(O)cccc43)ccc2nc1N (stereo not drawn) [Example 628, 2-amino-N-(4-hydroxy-2,3-dihydro-1H-inden-1-yl)-3-methyl-N-((5-(trifluoromethyl)pyridin-2-yl)methyl)quinoline-6-carboxamide]	53	3 to 4	440		
Cc1cc2cc(C(=O)N(Cc3ccc(C(F)(F)F)cn3)C[C@H]3CC[C@H](O)CC3)ccc2nc1N [Example 676, 2-amino-N-[(4-hydroxycyclohexyl)methyl]-3-methyl-N-[[5-(trifluoromethyl)-2-pyridyl]methyl] quinoline-6-carboxamide]	255	3.88	> 1000		
2-amino-3-methyl-N-[(4-methylthiazol-5-yl)methyl] -N-[[5-(trifluoromethyl)-2-pyridyl]methyl] quinoline-6-carboxamide [Example 565]		2.77		94	3490
Cc1cc2cc(C(=O)N(Cc3ccc4[nH]ncc4c3)Cc3ccc(C(F)(F)F)cn3)ccc2nc1N [Example 618, N-((1H-indazol-5-yl)methyl)-2-amino-3-methyl-N-((5-(trifluoromethyl)pyridin-2-yl)methyl)quinoline-6-carboxamide]		1.59		55	1400
Cc1cc2cc(C(=O)N(Cc3ccc(C(F)(F)F)cn3)C3COc4ccccc43)ccc2nc1N (stereo not drawn) [Example 608, 2-amino-N-(2,3-dihydrobenzofuran-3-yl)-3-methyl-N-((5-(trifluoromethyl)pyridin-2-yl)methyl)quinoline-6-carboxamide]	400	5.26	> 1000		
Cc1cc2cc(C(=O)N(Cc3ccc(C#N)cn3)C3CCCC3C#N)c(F)cc2nc1N (stereo not drawn) [Example 703, 2-amino-N-(2-cyanocyclopentyl)-N-[(5-cyano-2-pyridyl)methyl] -7-fluoro-3-methyl-quinoline-6-carboxamide]	222	5.62	2300		
Cc1cc2c(nc1N)CCC(C(=O)N(Cc1ccc(C(F)(F)F)cn1)Cc1ccnc3[nH]ccc13)C2 (stereo not drawn) [Example 581, N-((1H-pyrrolo[2,3-b]pyridin-4-yl)methyl)-2-amino-3-methyl-N-((5-(trifluoromethyl)pyridin-2-yl)methyl)-5,6,7,8-tetrahydroquinoline-6-carboxamide]	840	16	> 1000		
Cc1cc2cc(C(=O)N(Cc3ccc(C(F)(F)F)cn3)C3CCc4nc(N)ncc4C3)ccc2nc1N (stereo not drawn) [Example 668, 2-amino-N-(2-amino-5,6,7,8-tetrahydroquinazolin-6-yl)-3-methyl-N-[ [5-(trifluoromethyl)-2-pyridyl]methyl] quinoline-6-carboxamide]	270	4.69	> 1000		
Cc1cc2cc(C(=O)N(Cc3cnc4[nH]ccc4c3)Cc3ccc(C(F)(F)F)cn3)ccc2nc1N [Example 598, 2-amino-3-methyl-N-(1H-pyrrolo [2,3-b]pyridin-5-ylmethyl)-N-[[5-(trifluoromethyl)-2-pyridyl]methyl]quinoline-6-carboxamide]	180	2.44	> 1000		
Cc1cc2cc(C(=O)N(Cc3ccc(CO)c(F)c3)Cc3ccc(C(F)(F)F)cn3)ccc2nc1N [Example 566, 2-amino-N-[[3-fluoro-4-(hydroxymethyl)phenyl]methyl]-3-methyl-N-[[5-(trifluoromethyl)-2-pyridyl]methyl] quinoline-6-carboxamide]	277	4.58	> 10000		
Cc1cc(N)nc2ccc(C(=O)N(Cc3ccc(C(F)(F)F)cn3)Cc3ccn(C)n3)cc12 [Example 709, 2-amino-4-methyl-N-[(1-methylpyrazol-3-yl)methyl]-N-[[5-(trifluoromethyl)-2-pyridyl]methyl] quinoline-6-carboxamide]	334	2.97	1430		
Cc1cc2cc(C(=O)N(Cc3ccc(C(F)(F)F)cn3)[C@@H]3c4ccccc4C[C@H]3O)ccc2nc1N [Example 609, 2-amino-N-((1R,2R)-2-hydroxy-2,3-dihydro-1H-inden-1-yl)-3-methyl-N-((5-(trifluoromethyl)pyridin-2-yl)methyl)quinoline-6-carboxamide]	540	26.8	> 1000		
CO[C@@H]1COCC[C@H]1N(Cc1ccc(C(F)(F)F)cn1)C(=O)c1ccc2nc(N)c(C)cc2c1 [Example 704, 2-amino-N-[(3 S,4R)-3-methoxytetrahydropyran-4-yl]-3-methyl-N-[[5-(trifluoromethyl)-2-pyridyl]methyl] quinoline-6-carboxamide]	80	25.1			> 1000
Cc1cc2cc(C(=O)N(Cc3ccc(C(F)(F)F)cn3)C3COCc4ccccc43)ccc2nc1N (stereo not drawn) [Example 593, 2-amino-N-(isochroman-4-yl)-3-methyl-N-((5-(trifluoromethyl)pyridin-2-yl)methyl)quinoline-6-carboxamide]	185	13.2	> 1000		
Cc1cc2cc(C(=O)N(Cc3ccn4ccnc4c3)Cc3ccc(C(F)(F)F)cn3)ccc2nc1N [Example 621, 2-amino-N-(imidazo[1,2-a]pyridin-7-ylmethyl)-3-methyl-N-((5-(trifluoromethyl)pyridin-2-yl)methyl)quinoline-6-carboxamide]	133	3.97	> 1000		
Cc1cc2cc(C(=O)N(Cc3ccc4[nH]ccc4c3)Cc3ccc(C(F)(F)F)cn3)ccc2nc1N [Example 623, N-((1H-indol-5-yl)methyl)-2-amino-3-methyl-N-((5-(trifluoromethyl)pyridin-2-yl)methyl)quinoline-6-carboxamide]	56	3.14	900		
Cc1cc2cc(C(=O)N(Cc3ccc(C(F)(F)F)cn3)[C@@H]3CCc4ccccc43)ccc2nc1N [Example 601, 2-amino-N-[(1R)-indan-1-yl]-3-methyl-N-[[5-(trifluoromethyl)-2-pyridyl]methyl] quinoline-6-carboxamide]	38	1.78	820		
Cc1cc2cc(C(=O)N(Cc3ccc(N4CCC(C(N)=O)CC4)cc3)Cc3scnc3C)ccc2nc1N [Example 572, 2-amino-N-(4-(4-carbamoylpiperidin-1-yl)benzyl)-3-methyl-N-((4-methylthiazol-5-yl)methyl)quinoline-6-carboxamide]	608	3.48	> 10000		
